In PubChem BioAssay AID652125 (The Scripps Research Institute Molecular Screening Center, 2013):
Activity calls are given as the source filed them. How the calls were made is not given here.

Target: Perilipin-1 (Homo sapiens) + 1-acylglycerol-3-phosphate O-acyltransferase ABHD5 (Homo sapiens) (UniProt O60240+Q8WTS1)
Test: PubChem AID 652125
Conditions: biochemical ABHD5-PLIN1 interaction, luminescence

Compound | IC50
Cc1ccc(CS(=O)(=O)c2ncc(Cl)c(C(=O)NCc3ccc4c(c3)OCO4)n2)cc1 | 3.2 µM
O=C(CCn1cnc2ccccc21)N1CCN(S(=O)(=O)c2ccc3c(c2)OCCO3)CC1 | > 39.8 µM (inactive)
CC(C)N1C(=O)c2ccccc2Oc2ccc(NC(=O)c3ccccc3)cc21 | > 39.8 µM (inactive)
CN1C(=O)c2ccccc2Sc2ccc(NC(=O)NCCc3cccs3)cc21 | 4.31 µM
CS(=O)(=O)c1ncc(Cl)c(C(=O)Nc2ccc(C(F)(F)F)cc2)n1 | 1.42 µM
O=C(CCc1nc2ccccc2s1)N1CCN(S(=O)(=O)c2ccc3c(c2)OCCO3)CC1 | inactive
CN(C)CCCN(C(=O)CCc1ccccc1)c1nc2ccc(Cl)cc2s1 | inactive
CCCCCCCNC(=O)Nc1ccc2c(c1)Sc1ccccc1C(=O)N2C | inactive
CCS(=O)(=O)c1ncc(Cl)c(C(=O)Nc2ccc(S(N)(=O)=O)cc2)n1 | 6.72 µM
Cc1ccc2cc(CC(=O)N3CCN(S(=O)(=O)c4ccc5c(c4)OCCO5)CC3)oc2c1 | inactive
O=C(CCc1c[nH]c2ccccc12)N1CCN(S(=O)(=O)c2ccc3c(c2)OCCO3)CC1 | > 39.8 µM (inactive)
CN(C)CCCN(C(=O)C1CCCCC1)c1nc2cc(Cl)ccc2s1 | > 39.8 µM (inactive)
CN(C(=O)c1nc(S(C)(=O)=O)ncc1Cl)c1ccccc1 | 3.43 µM
CCCC(=O)Nc1ccc2c(c1)C(=O)N(C)c1cc(C)ccc1O2 | > 39.8 µM (inactive)
CCCS(=O)(=O)c1ncc(Cl)c(C(=O)Nc2ccc(C(=O)OC)cc2)n1 | 5.42 µM
CCCC(=O)Nc1ccc2c(c1)C(=O)N(C)c1ccccc1O2 | > 39.8 µM (inactive)
CN1C(=O)c2ccccc2Sc2ccc(NC(=O)NCCc3ccccc3)cc21 | 3.57 µM
O=C(Cc1cccc(F)c1)N1CCN(S(=O)(=O)c2ccc3c(c2)OCCO3)CC1 | > 39.8 µM (inactive)
Cc1ccc(NC(=O)c2nc(S(C)(=O)=O)ncc2Cl)cc1 | 3.5 µM
CCCCCCNC(=O)Nc1ccc2c(c1)Sc1ccccc1C(=O)N2C | > 39.8 µM (inactive)
CCCC(=O)N(CCCN1CCOCC1)c1nc2ccc(Cl)cc2s1 | > 39.8 µM (inactive)
CN(C)CCCN(C(=O)c1cc2ccccc2oc1=O)c1nc2ccc(Cl)cc2s1 | inactive
Cc1ccc(CS(=O)(=O)c2ncc(Cl)c(C(=O)Nc3cccc4ccccc34)n2)cc1 | 2.29 µM
CN(C)CCCN(C(=O)Cc1ccc(F)cc1)c1nc2ccc(Cl)cc2s1 | inactive

Compound | IC50
O=C(Cc1ccc2c(c1)CCCC2)N1CCN(S(=O)(=O)c2ccc3c(c2)OCCO3)CC1 | inactive
Cc1ccc2c(CC(=O)N3CCN(S(=O)(=O)c4ccc5c(c4)OCCCO5)CC3)coc2c1C | 3.74 µM
CCCNC(=O)Nc1ccc2c(c1)N(CC)C(=O)c1ccccc1S2 | inactive
CCCCCNC(=O)Nc1ccc2c(c1)Sc1ccccc1C(=O)N2C | > 39.8 µM (inactive)
COc1ccc(CC(=O)N2CCN(S(=O)(=O)c3ccc4c(c3)OCCCO4)CC2)cc1 | > 39.8 µM (inactive)
CN(C)CCCN(C(=O)C1CCCCC1)c1nc2cc(Br)ccc2s1 | inactive
O=C(C1COc2ccccc2O1)N1CCN(S(=O)(=O)c2ccc3c(c2)OCCO3)CC1 (configuration not stated) | > 39.8 µM (inactive)
Cc1ccc(CS(=O)(=O)c2ncc(Cl)c(C(=O)Nc3nnc(C(C)C)s3)n2)cc1 | > 39.8 µM (inactive)
COc1ccc(OCC(=O)Nc2ccc3c(c2)N(C(C)C)C(=O)c2ccccc2O3)cc1 | > 39.8 µM (inactive)
COc1ccc(CCNC(=O)c2nc(S(=O)(=O)Cc3ccc(F)cc3)ncc2Cl)cc1OC | 2.5 µM
CCc1ccc2c(CC(=O)N3CCN(S(=O)(=O)c4ccc5c(c4)OCCO5)CC3)coc2c1 | 2.54 µM
CCCS(=O)(=O)c1ccc(Cl)c(C(=O)Nc2ccc(C(=O)OCC)cc2)c1 | 5.32 µM
Cc1ccc(CS(=O)(=O)c2ncc(Cl)c(C(=O)Nc3cccc(C(F)(F)F)c3)n2)cc1 | 2.11 µM
Cc1ccc(CS(=O)(=O)c2ncc(Cl)c(C(=O)N3CCN(C)CC3)n2)cc1 | 5.75 µM
CN1C(=O)c2ccccc2Sc2ccc(NC(=O)NCCCc3ccccc3)cc21 | 1.73 µM
CC(NC(=O)CN1CCN(S(=O)(=O)c2ccc3c(c2)OCCCO3)CC1)c1cc2ccccc2o1 (configuration not stated) | > 39.8 µM (inactive)
NS(=O)(=O)c1ccc(NC(=O)c2nc(S(=O)(=O)Cc3ccccc3)ncc2Cl)cc1 | 4.22 µM
CCS(=O)(=O)c1ncc(Cl)c(C(=O)Nc2ccc(C)cc2)n1 | 3.53 µM
CN1C(=O)c2ccccc2Oc2ccc(NC(=O)c3cccs3)cc21 | > 39.8 µM (inactive)
O=C(Nc1ccc2ccccc2c1)c1nc(S(=O)(=O)Cc2ccccc2)ncc1Cl | 2.2 µM
COc1ccc(CC(=O)N2CCCN(S(=O)(=O)c3ccc(C)cc3)CC2)cc1OC | > 39.8 µM (inactive)
O=C(c1nc(S(=O)(=O)Cc2ccccc2)ncc1Cl)N(Cc1ccccc1)Cc1ccco1 | 1.41 µM
CN1C(=O)c2ccccc2Oc2ccc(NC(=O)c3cc4ccccc4[nH]3)cc21 | > 39.8 µM (inactive)
